Laboratory results from patent publication US11051515B2, “3-acyl-benzamides and their use as herbicides” (Bayer Aktiengesellschaft, priority 2017, dated 2021).

Legend:
VERPE [1] = experiment: Pre-emergence action against VERPE; type: in vivo, Veronica persica; settings: Dosage 320 g/ha, pre-emergence
Outline: (§1)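 Seeds sown in sandy loam in wood-fiber pots and covered with soil. Greenhouse growth; visual damage scored after 3 weeks versus untreated controls (100% = dead, 0% = like control).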

AMARE [2] = experiment: Pre-emergence action against AMARE; type: in vivo, Amaranthus retroflexus; settings: pre-emergence, dosage 320 g/ha, scored visually after 3 weeks vs untreated controls
Outline: as §1

CYPES [3] = experiment: Pre-emergence action against CYPES; type: in vivo, Cyperus esculentus; settings: pre-emergence, dosage 320 g/ha, scored visually after 3 weeks vs untreated controls
Outline: as §1

MATIN [4] = experiment: Pre-emergence action against MATIN; type: in vivo, Matricaria inodora; settings: Dosage 320 g/ha, pre-emergence
Outline: as §1

VERPE [5] = experiment: Post-emergence action against VERPE; type: in vivo, Veronica persica; settings: dosage 80 g/ha
Outline: (§2)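 Weeds grown in sandy loam in greenhouse, treated at one-leaf stage (2–3 weeks after sowing) with WP or EC formulations sprayed as aqueous suspension/emulsion at 600 to […] water with 0.2% wetting agent. Visual rating after about 3 weeks versus untreated controls, as % herbicidal action (100% = plants dead, 0% = like control).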

ABUTH [6] = experiment: Post-emergence action against ABUTH; type: in vivo, Abutilon theophrasti; settings: post-emergence, dosage 80 g/ha, visual assessment about 3 weeks after treatment vs untreated controls
Outline: as §2

ECHCG [7] = experiment: Pre-emergence action against ECHCG; type: in vivo, Echinochloa crus-galli; settings: pre-emergence, dosage 320 g/ha, scored visually after 3 weeks vs untreated controls
Outline: as §1

AVEFA [8] = experiment: Pre-emergence action against AVEFA; type: in vivo, Avena fatua; settings: dosage 320 g/ha, scored visually after 3 weeks vs untreated controls
Outline: as §1

AMARE [9] = experiment: Post-emergence action against AMARE; type: in vivo, Amaranthus retroflexus; settings: post-emergence, dosage 80 g/ha, visual assessment about 3 weeks after treatment vs untreated controls
Outline: as §2

MATIN [10] = experiment: Post-emergence action against MATIN; type: in vivo, Matricaria inodora; settings: post-emergence, dosage 80 g/ha, visual assessment about 3 weeks after treatment vs untreated controls
Outline: as §2

STEME [11] = experiment: Post-emergence action against STEME; type: in vivo, Stellaria media; settings: post-emergence, dosage 80 g/ha
Outline: as §2

POLCO [12] = experiment: Post-emergence action against POLCO; type: in vivo, Polygonum convolvulus; settings: post-emergence, dosage 80 g/ha
Description: (§3) Seeds of monocotyledonous and dicotyledonous weed and crop plants are laid out in sandy loam soil in wood-fiber pots, covered with soil and cultivated in a greenhouse under good growth conditions. 2 to 3 weeks after sowing, the test plants are treated at the one-leaf stage. The compounds of the invention, formulated in the form of wettable powders (WP) or as emulsion concentrates (EC), are then sprayed onto the green parts of the plants in the form of an aqueous suspension or emulsion at a water application rate equating to […], with addition of 0.2% wetting agent. After the test plants have been left to stand in the greenhouse under optimal growth conditions for about 3 weeks, the action of the preparations is assessed visually in comparison to untreated controls (herbicidal action in percent (%): 100% activity=the plants have died, 0% activity=like control plants). […] At the same time, inventive compounds leave Gramineae crops such as barley, wheat, rye, millet/Sorghum, corn or rice virtually undamaged when applied post-emergence, even at high active ingredient dosages. In addition, some substances are also harmless to dicotyledonous crops such as soya, cotton, oilseed rape, sugar beet or potatoes. Some of the compounds according to the invention have high selectivity and are therefore suitable for controlling unwanted vegetation in agricultural crops by the post-emergence method. The data of Tables B18 to B34 below illustrate, in an exemplary manner, the […] herbicidal action of the compounds according to the invention, the herbicidal activity being stated in percent.

VIOTR [13] = experiment: Post-emergence action against VIOTR; type: in vivo, Viola tricolor; settings: post-emergence, dosage 80 g/ha
Outline: as §2

SETVI [14] = experiment: Post-emergence action against SETVI; type: in vivo, Setaria viridis; settings: post-emergence, dosage 80 g/ha, visual assessment about 3 weeks after treatment vs untreated controls
Outline: as §2

AVEFA [15] = experiment: Post-emergence action against AVEFA; type: in vivo, Avena fatua; settings: post-emergence, dosage 80 g/ha, visual assessment about 3 weeks after treatment vs untreated controls
Description: as §3

ECHCG [16] = experiment: Post-emergence action against ECHCG; type: in vivo, Echinochloa crus-galli; settings: post-emergence, dosage 80 g/ha, visual assessment about 3 weeks after treatment vs untreated controls
Outline: as §2

PHBPU [17] = experiment: Post-emergence action against PHBPU; type: in vivo, Pharbitis purpurea; settings: post-emergence, dosage 80 g/ha
Outline: as §2

STEME [18] = experiment: Pre-emergence action against STEME; type: in vivo, Stellaria media; settings: Dosage 320 g/ha, pre-emergence
Outline: as §1

ABUTH [19] = experiment: Pre-emergence action against ABUTH; type: in vivo, Abutilon theophrasti; settings: pre-emergence, dosage 320 g/ha, scored visually after 3 weeks vs untreated controls
Outline: as §1

SETVI [20] = experiment: Pre-emergence action against SETVI; type: in vivo, Setaria viridis; settings: pre-emergence, dosage 320 g/ha, scored visually after 3 weeks vs untreated controls
Outline: as §1

POLCO [21] = experiment: Pre-emergence action against POLCO; type: in vivo, Polygonum convolvulus; settings: Dosage 320 g/ha, pre-emergence
Outline: as §1

VIOTR [22] = experiment: Pre-emergence action against VIOTR; type: in vivo, Viola tricolor; settings: Dosage 320 g/ha, pre-emergence
Outline: as §1

CYPES [23] = experiment: Post-emergence action against CYPES; type: in vivo, Cyperus esculentus; settings: post-emergence, dosage 80 g/ha, visual assessment about 3 weeks after treatment vs untreated controls
Outline: as §2

PHBPU [24] = experiment: Pre-emergence action against PHBPU; type: in vivo, Pharbitis purpurea; settings: Dosage 320 g/ha, pre-emergence
Outline: as §1

ALOMY = experiment: Pre-emergence action against ALOMY; type: in vivo, Alopecurus myosuroides; settings: dosage 320 g/ha; pre-emergence; scored visually after 3 weeks vs untreated controls; 100% = plants have died, 0% = like control plants
Outline: as §1

| SMILES | Pre-emergence action against VERPE (VERPE [1]) [%] | Pre-emergence action against AMARE (herbicidal activity) (AMARE [2]) [%] | Pre-emergence action against CYPES (herbicidal activity) (CYPES [3]) [%] | Pre-emergence action against MATIN (MATIN [4]) [%] | Post-emergence action against VERPE (VERPE [5]) | Post-emergence action against ABUTH (herbicidal action in percent) (ABUTH [6]) [%] | Pre-emergence action against ECHCG (herbicidal activity) (ECHCG [7]) [%] | Pre-emergence action against AVEFA (herbicidal activity) (AVEFA [8]) [%] | Post-emergence action against AMARE (herbicidal action in percent) (AMARE [9]) [%] | Post-emergence action against MATIN (herbicidal action in percent) (MATIN [10]) [%] | Post-emergence action against STEME (STEME [11]) | Post-emergence action against VIOTR (VIOTR [13]) | Post-emergence action against SETVI (herbicidal action in percent) (SETVI [14]) [%] | Post-emergence action against AVEFA (herbicidal action in percent) (AVEFA [15]) [%] | Post-emergence action against ECHCG (herbicidal action in percent) (ECHCG [16]) [%] | Post-emergence action against PHBPU (PHBPU [17]) | Pre-emergence action against STEME (STEME [18]) [%] | Pre-emergence action against ABUTH (herbicidal activity) (ABUTH [19]) [%] | SETVI (Table B8, pre-emergence herbicidal activity) (SETVI [20]) [%] | Pre-emergence action against VIOTR (VIOTR [22]) [%] | also measured |
| --- | --- | --- | --- | --- | --- | --- | --- | --- | --- | --- | --- | --- | --- | --- | --- | --- | --- | --- | --- | --- | --- |
| CCCn1nnnc1NC(=O)c1ccc(SC)c(C(=O)C2CC2)c1Cl [3-123] | 100 | 100 | 80 | 100 | 100 | 80 | 90 | 100 | 100 | 100 | 100 | 100 | 90 | 100 | 100 | 90 | 90 | 100 | 100 | 100 | Post-emergence action against POLCO (POLCO [12]): 90; Pre-emergence action against POLCO (POLCO [21]): 80% |
| CCn1nnnc1NC(=O)c1ccc(S(C)(=O)=O)c(C(C)=O)c1Cl [2-127] | 100 | 100 | 90 | 100 | 100 | 100 | 100 | 90 | 100 | 90 | 100 | 100 | 90 | 90 | 100 | 100 | 90 | 100 | 90 | 100 | Post-emergence action against CYPES (herbicidal action in percent) (CYPES [23]): 90%; Pre-emergence action against PHBPU (PHBPU [24]): 90% |
| CCCn1nnnc1NC(=O)c1ccc(S(C)(=O)=O)c(C(C)=O)c1C [3-7] | 100 | 100 | 100 | 100 | 100 | 100 | 100 | 90 | 100 | 100 | 100 | 100 | 100 | 100 | 100 | 90 | 90 | 100 | 100 | 100 | Post-emergence action against CYPES (herbicidal action in percent) (CYPES [23]): 80%; Pre-emergence action against PHBPU (PHBPU [24]): 90%; Post-emergence action against POLCO (POLCO [12]): 80; Pre-emergence action against ALOMY (herbicidal activity in percent) (ALOMY): 80%; Pre-emergence action against POLCO (POLCO [21]): 90% |
